Measurements: PubChem BioAssay (NCI)
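Dose response: 5 concentrations. Exposure: 48 h. Format: 96-well plates. Endpoint: linear interpolation; highest concentration if not reached. The concentration for 50% growth inhibition is given as GI50. TGI: concentration producing complete growth inhibition.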

Assays:
Assay in all cases: NCI-60 cell line screen, 48 h
[1] = system: UACC-62 melanoma
[2] = system: SK-MEL-28 melanoma
[3] = system: ACHN renal
[4] = system: HL-60(TB) leukemia
[5] = system: HOP-92 NSCLC
[6] = system: DU-145 prostate
[7] = system: HCC-2998 colon
[8] = system: OVCAR-5 ovarian
[9] = system: OVCAR-3 ovarian
[10] = system: SF-268 CNS

Compound	TGI [1]	TGI [2]	TGI [3]	TGI [4]	TGI [5]	TGI [6]	TGI [7]	TGI [8]	TGI [9]	TGI [10]	GI50 [1]	GI50 [2]	GI50 [3]	GI50 [4]	GI50 [5]	GI50 [6]	GI50 [7]	GI50 [8]	GI50 [9]	GI50 [10]
Cc1ccc(Nc2nc(NS(=O)(=O)c3cc(C)c(Cl)cc3S)n[nH]2)cc1	> 100 µM	> 100 µM	> 100 µM	> 100 µM	> 100 µM	> 100 µM	> 100 µM	> 100 µM	> 100 µM	> 100 µM										
C=C1[C@H](OCC(C)C)[C@@H](OC(=O)C(C)CC)[C@@H](O)C(C)(C)/C=C/[C@H](C)C(=O)[C@@]2(O)C[C@H](C)[C@H](O)[C@@H]2[C@H]1OC(=O)C(C)CC (stereo not given in full)	> 20 µM	> 20 µM	> 13 µM	19 µM	> 20 µM	> 20 µM	> 9.84 µM	> 17.7 µM	> 13.7 µM	> 20 µM										
O=C(NC(CO)CO)c1ccc2cc(C(=O)N3CC(CCl)c4ccc([N+](=O)[O-])cc43)[nH]c2c1 (stereo not given)	> 100 µM	> 100 µM	> 100 µM	> 100 µM	> 100 µM	> 100 µM	> 100 µM	> 100 µM	> 100 µM	> 100 µM										
Clc1ccc(-c2nn3c(C45CC6CC(CC(C6)C4)C5)nnc3s2)cc1	> 100 µM	> 100 µM	> 100 µM	> 100 µM	> 100 µM	> 100 µM	> 100 µM	> 100 µM	> 100 µM	> 100 µM										
CCOC(=O)O/N=C1/C(c2c(O)[nH]c3ccccc23)=Nc2ccccc21	23 µM	41.8 µM	33.1 µM	24.1 µM	> 100 µM	13.3 µM	6.46 µM	56.2 µM	8 µM	68.2 µM										
CC(C)(C)OC(=O)NCCNC(=O)CN(CC(=O)O)C1CCCCC1N(CC(=O)O)CC(=O)O (stereo not given)	> 100 µM	> 100 µM	> 100 µM	> 100 µM	> 100 µM	> 100 µM	> 100 µM	> 100 µM	> 100 µM	> 100 µM										
Cc1nc(N)nc(N)c1N1CCN(Cc2ccccc2)CC1	> 100 µM	> 100 µM	> 100 µM	> 100 µM	> 100 µM	> 100 µM	> 100 µM	> 100 µM	> 100 µM	> 100 µM										
COc1cccc(/C=N/n2c(Cc3ccc(Cl)cc3)n[nH]c2=O)c1	> 82.9 µM	> 100 µM	67.3 µM	> 100 µM	52.1 µM	> 100 µM	> 100 µM	> 100 µM	> 100 µM	34.9 µM										
CC(CC(C)(C)[N+](C)(C)C)[N+](C)(C)C (stereo not given)	> 100 µM	> 100 µM	> 100 µM	> 100 µM	> 100 µM	> 100 µM	> 100 µM	> 100 µM	> 100 µM	> 100 µM										
Cc1ccc(CC(=O)Nc2ccc(NC(=O)CNC(=O)/C=C/c3ccc(-c4ccccc4)cc3)cc2C(=O)c2ccccc2)cc1	30.8 µM	66.6 µM	16.2 µM	20.7 µM	15.4 µM	7.54 µM	4.98 µM	23.1 µM	19.1 µM	7.51 µM										
COC1CCC(n2c([C@@H]3CCCC(=O)N3c3ccc(F)c(F)c3)nc3cc(-c4c(C)noc4C)ccc32)CC1 (stereo not given in full)	16.1 µM	28.1 µM	21.1 µM	36.4 µM	14.2 µM	54.2 µM	19.6 µM	> 100 µM	32.3 µM	56.4 µM	2.52 µM	11.8 µM	4.78 µM	0.851 µM	2.04 µM	16.8 µM	4.19 µM	17.2 µM	10.5 µM	14.6 µM
CC(C)=CCC/C(C)=C/CC/C(C)=C/CSc1ccc(Cl)cc1C(=O)O	34.7 µM	33.9 µM	35.9 µM	50.8 µM	45.2 µM	56 µM	34.7 µM	36.9 µM	30.7 µM	32.7 µM										
CC(C)C[C@H](NC(=O)[C@H](CCc1ccccc1)NC(=O)c1ccc2ccccc2n1)B(O)O	1.2 µM	0.055 µM	0.176 µM	0.0955 µM	0.28 µM	3.49 µM	0.149 µM	0.617 µM	0.0818 µM	0.397 µM										
CCOC(=O)/C=C1/Nc2cc(F)c(F)cc2NC1=O	> 100 µM	> 100 µM	> 100 µM	> 100 µM	> 100 µM	> 100 µM	> 100 µM	> 100 µM	> 100 µM	> 100 µM										
O=Cc1cc(O)c(O)c(/C=N/n2c3ccccc3c3ccccc32)c1	22.9 µM	42.1 µM	21.1 µM	6.32 µM	9.23 µM	49 µM	30.9 µM	49 µM	10.1 µM	20 µM										
CCOC(=O)c1ccc(NC(NC(=O)CC)(C(F)(F)F)C(F)(F)F)cc1	> 100 µM	> 100 µM	> 100 µM	> 100 µM	> 100 µM	> 100 µM	> 100 µM	> 100 µM	> 100 µM	> 100 µM										
